The values below come from patent US20230233569A1 (Revolution Medicines, Inc., priority 2020, published 2023).

Read-outs that look alike come from different tables or passages of the source.

The test system of assay [1] is AsPC-1 (K-Ras G12D). As to the kind of experiment: CellTiter-Glo cell viability assay. In kind it is cell-based. The following applies: Homo sapiens, ASPC1, 120 h, K-Ras G12D, 5-day treatment, read-out: AsPC-1 Cell Viability assay data IC50. The gist of the method:
(§1)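 Direct compound addition to plated cells; 5-day exposure; ~30 min RT equilibration; CellTiter-Glo luminescence. Normalization: (sample/avg DMSO)*100; 4-parameter logistic curve fit.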

For a further assay, the system named is NCI-H358 (K-Ras G12C). As to the kind of experiment: CellTiter-Glo cell viability assay. The class given is cell-based. The conditions noted are these: Homo sapiens, NCI-H358, 120 h. The procedure, abridged:
as §1

A further assay has as its target KRAS G12S (Homo sapiens, UniProt P01116+P62937, G12S). As to the kind of experiment: Ras-Raf disruption / FRET / MOA assay (BRAF RBD). In kind it is biochemical. The conditions noted are these: KRAS G12S FRET data IC50, Ras-Raf disruption, with Cyclophilin A. The procedure, abridged:
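Compound-induced Ras–Cyclophilin A ternary complex disrupting BRAF RBD binding, read as IC50 from reduced TR-FRET ratio relative to DMSO. Final: Ras-GMPPNP 12.5 nM, BRAF RBD 50 nM, Cyclophilin A 25 μM, top compound 30 μM (3-fold, 10 points); 3 h at 25 °C, then 1.5 h with detection antibodies.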

The target of another assay is KRAS G12C (Homo sapiens, UniProt P01116+P62937, G12C). The assay can be described thus: Ras-Raf disruption / FRET / MOA assay (BRAF RBD). The class given is biochemical. The following applies: KRAS G12C FRET data IC50, Ras-Raf disruption, with Cyclophilin A. The gist of the method: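 TR-FRET read-out after 1.5 h with anti-His Eu-W1024 (10 nM) and anti-GST APC (50 nM), following 3 h at 25 °C of compound (top 30 μM, 3-fold, 10 points) with 25 μM Cyclophilin A, 12.5 nM GMPPNP-loaded K-Ras G12C and 50 nM BRAF RBD; IC50 reported.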
Chain of KRAS G12C (P01116 1-169 isoform P01116-2 G12C limits assumed): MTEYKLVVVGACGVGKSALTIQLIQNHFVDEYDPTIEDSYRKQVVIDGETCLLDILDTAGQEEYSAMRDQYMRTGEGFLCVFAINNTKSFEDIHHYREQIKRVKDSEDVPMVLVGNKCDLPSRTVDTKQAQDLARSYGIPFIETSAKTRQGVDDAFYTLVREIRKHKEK
Chain of KRAS G12C (P62937 whole entry): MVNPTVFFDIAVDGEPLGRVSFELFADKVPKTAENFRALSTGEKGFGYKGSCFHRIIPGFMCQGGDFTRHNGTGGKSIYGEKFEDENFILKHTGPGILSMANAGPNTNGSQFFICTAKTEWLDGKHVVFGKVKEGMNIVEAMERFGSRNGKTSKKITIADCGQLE

Assay [2] has as its system AsPC-1 (K-Ras G12D). The assay can be described thus: Potency assay: pERK. In kind it is cell-based. The conditions noted are these: Homo sapiens, ASPC1, read-out: pERK EC50.
Assay [3] deals with 4EBP1 (Thr37/46) phosphorylation (mTORC1) in MDA-MB-468 cells. The assay can be described thus: Cell based AlphaLISA assay, mTOR kinase cellular assay: inhibition of p-4E-BP1 (T37/46) in MDA-MB-468 cells. The conditions noted are these: Homo sapiens, read-out: pIC50 for Inhibition of mTORC1 and mTORC2 Substarte Phosphorylation p-4E-BP1-(T37/46) (converted). The protocol:
(§2) Cell Based AlphaLISA Assays for Determining IC50 For Inhibition of P-Akt (S473), P-4E-BP1 (T37/46), and P-P70S6K (T389) in MDA-MB-468 Cells
(§3) mTOR Kinase Cellular Assay
(§4) To measure functional activity of mTORC1 and mTORC2 in cells the phosphorylation of 4EBP1 (Thr37/46) and P70S6K (Thr389), and AKT1/2/3 (Ser473) was monitored using AlphaLisa SureFire Ultra Kits (Perkin Elmer). MDA-MB-468 cells (ATCC® HTB-132) were cultured in 96-well tissue culture plates and treated with compounds in the disclosure at concentrations varying from 0.017-1,000 nM for two to four hours at 37° C. Incubations were terminated by removal of the assay buffer and addition of lysis buffer provided with the assay kit. Samples were processed according to the manufacturer's instructions. The Alpha signal from the respective phosphoproteins was measured in duplicate using a microplate reader (Envision, Perkin-Elmer or Spectramax M5, Molecular Devices). Inhibitor concentration response curves were analyzed using normalized IC50 regression curve fitting with control based normalization.

For assay [4], the system named is AKT1/2/3 (Ser473) phosphorylation (mTORC2) in MDA-MB-468 cells. The assay can be described thus: Cell based AlphaLISA assay, mTOR kinase cellular assay: inhibition of p-Akt (S473) in MDA-MB-468 cells. The following applies: Homo sapiens, read-out: pIC50 for Inhibition of mTORC1 and mTORC2 Substarte Phosphorylation p-AKT1/2/3-(S473) (converted). The protocol:
as §2, §3, §4

Setting [5] is: read-out: H358 Cell Viability assay data IC50, K-Ras G12C, 5-day treatment.

Chain of KRAS G12S (P01116 1-169 isoform P01116-2 G12S limits assumed): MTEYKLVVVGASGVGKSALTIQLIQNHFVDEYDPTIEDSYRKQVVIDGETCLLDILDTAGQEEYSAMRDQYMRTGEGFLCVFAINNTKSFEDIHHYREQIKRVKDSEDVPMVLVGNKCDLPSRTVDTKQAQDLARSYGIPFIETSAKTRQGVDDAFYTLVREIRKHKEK
Chain of KRAS G12S (P62937 whole entry): as the sequence (P62937 whole entry) above

For the compound `CCn1c(-c2cccnc2[C@H](C)OC)c2c3cc(ccc31)-c1cc(O)cc(c1)C[C@H](NC(=O)[C@H](C(C)C)N(C)C(=O)[C@@]1(C)CCCN1C(=O)[C@@H]1CN1)C(=O)N1CCC[C@H](N1)C(=O)OCC(C)(C)C2` [Example 241], the IC50 was 100 to 1000 nM with AsPC-1 (K-Ras G12D) [1] and less than 10 nM in the assay on NCI-H358 (K-Ras G12C) (K-Ras G12C, 5-day treatment, read-out: H358 Cell Viability assay data IC50).

As to `CCn1c(-c2cccnc2[C@H](C)OC)c2c3cc(ccc31)-c1cc(O)cc(c1)C[C@H](NC(=O)[C@H](C(C)C)N(C)C(=O)CN(C)C(=O)[C@H]1N[C@@H]1C1CC1)C(=O)N1CCC[C@H](N1)C(=O)OCC(C)(C)C2` [Example 136], the figures for the IC50 on KRAS G12S, with NCI-H358 (K-Ras G12C) (setting [5]) and against KRAS G12C were 10 to 100 nM, less than 10 nM and 10 to 100 nM, respectively. Further, the EC50 in the assay on AsPC-1 (K-Ras G12D) [2] is less than 5000 nM.

As for `CO[C@H]1C[C@@H]2CC[C@@H](C)[C@@](O)(O2)C(=O)C(=O)N2CCCC[C@H]2C(=O)O[C@H]([C@H](C)C[C@@H]2CC[C@@H](OC(=O)NCc3cnc(N4CCN(C(=O)CN(C)CC(=O)NCCOCCOCCC(=O)N5CCc6cc(Cn7nc(-c8ccc9oc(N)nc9c8)c8c(N)ncnc87)ccc6C5)CC4)nc3)[C@H](OC)C2)C[C@@H](OC)[C@H](C)/C=C(\C)[C@@H](O)[C@@H](OC)C(=O)[C@H](C)C[C@H](C)/C=C/C=C/C=C/1C` [Example 103], the IC50 in assay [3] and in assay [4] was greater than 1000 nM throughout.

Consider `CCn1c(-c2cccnc2COC)c2c3cc(ccc31)-c1cc(O)cc(c1)C[C@H](NC(=O)[C@H](C(C)C)N(C)C(=O)CCNC(=O)NCCCl)C(=O)N1CCC[C@H](N1)C(=O)OCC(C)(C)C2` [Example 25], for which the IC50 in the assay on NCI-H358 (K-Ras G12C) (setting [5]) is greater than 10000 nM.
